Each molecule was assayed against AAK1 (GST-Xa-hAAK1) (Homo sapiens (Human), UniProt Q2M2I8) (assay: AAK1 Kinase Assay). Settings: not given.
Format: biochemical
Procedure: The assays were performed in U-bottom 384-well plates. […] The reactions were initiated by the combination of bacterially expressed, GST-Xa-hAAK1 with substrates and test compounds. The reactions were incubated at room temperature for 3 hours and terminated by adding 60 μl of 35 mM EDTA buffer to each sample. […] Compounds were dissolved at 10 mM in dimethylsulfoxide (DMSO) and evaluated at eleven concentrations. IC50 values were derived by non-linear regression analysis.

Chain of AAK1 (GST-Xa-hAAK1) (Q2M2I8 whole entry): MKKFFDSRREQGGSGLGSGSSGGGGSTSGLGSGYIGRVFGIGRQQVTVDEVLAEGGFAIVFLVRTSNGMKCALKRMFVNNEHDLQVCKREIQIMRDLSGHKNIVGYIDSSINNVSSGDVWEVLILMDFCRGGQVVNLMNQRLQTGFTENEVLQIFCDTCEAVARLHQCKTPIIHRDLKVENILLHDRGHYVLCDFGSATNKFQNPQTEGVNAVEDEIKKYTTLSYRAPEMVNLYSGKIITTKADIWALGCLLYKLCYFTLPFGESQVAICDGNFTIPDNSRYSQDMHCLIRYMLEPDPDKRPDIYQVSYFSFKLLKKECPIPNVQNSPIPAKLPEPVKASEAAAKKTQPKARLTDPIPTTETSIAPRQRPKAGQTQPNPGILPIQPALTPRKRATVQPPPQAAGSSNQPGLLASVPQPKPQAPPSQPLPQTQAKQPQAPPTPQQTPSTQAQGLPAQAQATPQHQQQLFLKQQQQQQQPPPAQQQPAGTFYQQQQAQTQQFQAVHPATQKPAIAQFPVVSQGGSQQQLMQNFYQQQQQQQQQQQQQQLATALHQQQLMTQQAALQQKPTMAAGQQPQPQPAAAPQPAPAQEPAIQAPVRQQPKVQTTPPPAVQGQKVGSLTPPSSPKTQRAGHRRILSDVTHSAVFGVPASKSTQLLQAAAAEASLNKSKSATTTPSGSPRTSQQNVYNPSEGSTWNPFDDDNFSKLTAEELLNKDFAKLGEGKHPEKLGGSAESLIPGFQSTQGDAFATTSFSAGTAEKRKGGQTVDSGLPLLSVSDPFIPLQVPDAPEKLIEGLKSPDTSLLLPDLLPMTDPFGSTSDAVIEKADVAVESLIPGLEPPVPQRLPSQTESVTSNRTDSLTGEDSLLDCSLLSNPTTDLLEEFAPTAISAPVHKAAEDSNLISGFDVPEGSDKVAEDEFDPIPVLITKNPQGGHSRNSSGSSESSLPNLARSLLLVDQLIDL

Q: With COCCC(=O)Nc1ccc2c(c1)OCc1cnccc1-2 [Example 18, N-(5H-chromeno[3,4-c]pyridin-8-yl)-3-methoxypropanamide] as the molecule, how does the IC50 read?
A: 100 to 1200 nM

Q: For O=C(Nc1ccc2c(c1)OCc1cnccc1-2)NC1CCCCC1 [Example 13, 1-(5H-chromeno[3,4-c]pyridin-8-yl)-3-cyclohexylurea], which IC50 is on record?
A: 100 to 1200 nM

Q: CC(C)(C)COC(=O)Nc1ccc2c(c1)OCc1cnccc1-2 [Example 12, neopentyl 5H-chromeno[3,4-c]pyridin-8-ylcarbamate] was tested. Which IC50 did it give?
A: 100 to 1200 nM

Q: Which IC50 does the source give for N#CCC(=O)Nc1ccc2c(c1)OCc1cnccc1-2 [Example 25, N-(5H-chromeno[3,4-c]pyridin-8-yl)-2-cyanoacetamide] here?
A: 100 to 1200 nM

Q: For CC(C)C[C@@H](N)C(=O)Nc1ccc2c(c1)OCc1cnccc1-2 [Example 1, (R)-2-amino-N-(5H-chromeno[3,4-c]pyridin-8-yl)-4-methylpentanamide], which IC50 is on record?
A: 1 to 10 nM

Q: For CC(C)(C)CC(=O)Nc1ccc2c(c1)OCc1cnccc1-2 [Example 26, N-(5H-chromeno[3,4-c]pyridin-8-yl)-3,3-dimethylbutanamide], which IC50 is on record?
A: 10 to 100 nM

Q: Which IC50 does the source give for CC(C)C(=O)Nc1ccc2c(c1)OCc1cnccc1-2 [Example 24, N-(5H-chromeno[3,4-c]pyridin-8-yl)isobutyramide] here?
A: 100 to 1200 nM

Q: For CC(C)CC(=O)Nc1ccc2c(c1)OCc1cnccc1-2 [Example 27, N-(5H-chromeno[3,4-c]pyridin-8-yl)-3-methylbutanamide], which IC50 is on record?
A: 10 to 100 nM

Q: N#CC1(C(=O)Nc2ccc3c(c2)OCc2cnccc2-3)CC1 [Example 20, N-(5H-chromeno[3,4-c]pyridin-8-yl)-1-cyanocyclopropanecarboxamide] was tested. Which IC50 did it give?
A: 100 to 1200 nM

Q: CCC(=O)Nc1ccc2c(c1)OCc1cnccc1-2 [Example 28, N-(5H-chromeno[3,4-c]pyridin-8-yl)propionamide] was tested. Which IC50 did it give?
A: 100 to 1200 nM

Q: For NS(=O)(=O)CCCC(=O)Nc1ccc2c(c1)OCc1cnccc1-2 [Example 21, N-(5H-chromeno[3,4-c]pyridin-8-yl)-4-sulfamoylbutanamide], which IC50 is on record?
A: 100 to 1200 nM

Q: O=C(CCO)Nc1ccc2c(c1)OCc1cnccc1-2 [Example 19, N-(5H-chromeno[3,4-c]pyridin-8-yl)-3-hydroxypropanamide] was tested. Which IC50 did it give?
A: 100 to 1200 nM

Q: How did the IC50 turn out when CCCC(=O)Nc1ccc2c(c1)OCc1cnccc1-2 [Example 31, N-(5H-chromeno[3,4-c]pyridin-8-yl)butyramide] was run?
A: 10 to 100 nM

Q: Which IC50 does the source give for O=C(Nc1ccc2c(c1)OCc1cnccc1-2)C1CCCCC1 [Example 23, N-(5H-chromeno[3,4-c]pyridin-8-yl)cyclohexanecarboxamide] here?
A: 100 to 1200 nM

Q: COC(=O)CCC(=O)Nc1ccc2c(c1)OCc1cnccc1-2 [Example 29, methyl 4-((5H-chromeno[3,4-c]pyridin-8-yl)amino)-4-oxobutanoate] was tested. Which IC50 did it give?
A: 100 to 1200 nM

Q: Which IC50 does the source give for CC(C)C[C@H](N)C(=O)Nc1ccc2c(c1)OCc1cnccc1-2 [Example 2, (S)-2-amino-N-(5H-chromeno[3,4-c]pyridin-8-yl)-4-methylpentanamide] here?
A: 1 to 10 nM

Q: Which IC50 does the source give for N[C@H](CNc1ccc2c(c1)OCc1cnccc1-2)c1ccccc1 [Example 37, (S)—N^1-(5H-chromeno[3,4-c]pyridin-8-yl)-2-phenylethane-1,2-diamine] here?
A: 10 to 100 nM

Q: How did the IC50 turn out when CC(C)(C)C(=O)Nc1ccc2c(c1)OCc1cnccc1-2 [Example 32, N-(5H-chromeno[3,4-c]pyridin-8-yl)pivalamide] was run?
A: 100 to 1200 nM

Q: C#CCCC(=O)Nc1ccc2c(c1)OCc1cnccc1-2 [Example 14, N-(5H-chromeno[3,4-c]pyridin-8-yl)pent-4-ynamide] was tested. Which IC50 did it give?
A: 10 to 100 nM

Q: With CCCCC(=O)Nc1cc2c(cc1Br)-c1ccncc1CO2 [Example 34, N-(9-bromo-5H-chromeno[3,4-c]pyridin-8-yl)pentanamide] as the molecule, how does the IC50 read?
A: 10 to 100 nM

Q: With CC(C)C[C@@H](N)C(=O)Nc1ccc2c(c1)OC(C)(C)c1cnccc1-2 [Example 8, (R)-2-amino-N-(5,5-dimethyl-5H-chromeno[3,4-c]pyridin-8-yl)-4-methylpentanamide] as the molecule, how does the IC50 read?
A: 10 to 100 nM

Q: Which IC50 does the source give for CC(=O)Nc1ccc2c(c1)OCc1cnccc1-2 [Example 17, N-(5H-chromeno[3,4-c]pyridin-8-yl)acetamide] here?
A: 100 to 1200 nM

Same assay, conditions: Table 1a, listed as IC50 ranges; ATP 22 μM; read-out: AAK1 IC50

Q: For CN(C)CC(=O)Nc1ccc2c(c1)OCc1cnccc1-2 [Example 33, N-(5H-chromeno[3,4-c]pyridin-8-yl)-2-(dimethylamino)acetamide], which IC50 is on record?
A: 100 to 1200 nM

Q: Which IC50 does the source give for N#CCCC(=O)Nc1ccc2c(c1)OCc1cnccc1-2 [Example 16, N-(5H-chromeno[3,4-c]pyridin-8-yl)-3-cyanopropanamide] here?
A: 100 to 1200 nM

Q: How did the IC50 turn out when CC(C)C[C@H](N)C(=O)Nc1ccc2c(c1)oc(=O)c1cnccc12 [Example 11, (S)-2-amino-4-methyl-N-(5-oxo-5H-chromeno[3,4-c]pyridin-8-yl)pentanamide] was run?
A: 100 to 1200 nM

Q: With CC(=O)Nc1cc2c(cn1)COc1cc(NC(=O)[C@@H](N)CC(C)C)ccc1-2 [Example 35, (S)—N-(2-acetamido-5H-chromeno[3,4-c]pyridin-8-yl)-2-amino-4-methylpentanamide] as the molecule, how does the IC50 read?
A: 10 to 100 nM

Q: For CC(C)CCC(=O)Nc1ccc2c(c1)OCc1cnccc1-2 [Example 30, N-(5H-chromeno[3,4-c]pyridin-8-yl)-4-methylpentanamide], which IC50 is on record?
A: 10 to 100 nM

Same assay, conditions: Table 1a, numeric values; ATP 22 μM; read-out: AAK1 IC50

Q: For O=C(CCN1CCCC1=O)Nc1ccc2c(c1)OCc1cnccc1-2 [Example 22, N-(5H-chromeno[3,4-c]pyridin-8-yl)-3-(2-oxopyrrolidin-1-yl)propanamide], which IC50 is on record?
A: 1200 nM

Q: CC(C)C1CCCNC1C(=O)Nc1ccc2c(c1)OCc1cnccc1-2 (centres unmarked) [Example 10, N-(5H-chromeno[3,4-c]pyridin-8-yl)-3-isopropylpiperidine-2-carboxamide] was tested. Which IC50 did it give?
A: 1.3 nM

Q: Which IC50 does the source give for CCCCC(=O)Nc1ccc2c(c1)OCc1cnccc1-2 [Example 15, N-(5H-chromeno[3,4-c]pyridin-8-yl)pentanamide] here?
A: 26 nM

Q: With CC(C)C[C@H](N)C(=O)Nc1ccc2c(c1)OC(C)(C)c1cnccc1-2 [Example 9, (S)-2-amino-N-(5,5-dimethyl-5H-chromeno[3,4-c]pyridin-8-yl)-4-methylpentanamide] as the molecule, how does the IC50 read?
A: 129 nM

Q: With N[C@H](C(=O)Nc1ccc2c(c1)OCc1cnccc1-2)c1ccccc1 [Example 36, (S)-2-amino-N-(5H-chromeno[3,4-c]pyridin-8-yl)-2-phenylacetamide] as the molecule, how does the IC50 read?
A: 8.9 nM

From patent US9708337B2, “Aryl amide-based kinase inhibitors” (Bristol-Myers Squibb Company, priority 2013, dated 2017)
